Where two headings read alike, the source gives them in different places.
Tested on: human KRAS G12C mutated cell line MIA PaCa-2
Assay: KRas G12C in vitro inhibitory activity: cell proliferation, CellTiter-Glo
Assay type: cell-based
Text: The present example evaluates the ability of compounds provided herein to inhibit proliferation of KRAS mutant cells.
The inhibitory effect on cell proliferation was investigated in the human KRAS G12C mutated cell line MIA PaCa-2 (Yunis et al., 1977, Int. J. Cancer 19(1):128-135; ATCC catalog no. CRL-1420). Cells were maintained in RPMI-1640 medium (ThermoFisher catalog no. 61870036) supplemented with 10% of Heat Inactivated FBS (ThermoFisher catalog no. A31605) and 1% Pen-Strep (ThermoFisher catalog no. 10378016) and cultured at 37° C. in a humidified incubator with 5% CO2. Cells were grown by adhering to culture flasks, and maintained at 70%-80% confluency.
ATP is present in all metabolically active cells and is considered as a marker for viable cells. The number of metabolically active live cells in culture was determined using the CellTiter-Glo kit (Promega catalog no. G7572), an ATP monitoring system based on the production of luminescence by the reaction of ATP with added UltraGlo® recombinant luciferase (Kawano et al., 2016, PLOS One, 8; 11(7):e0158888), according to the supplier's experimental recommendations. The cell proliferation assay was based on a 96 well plate format.
Test compounds were dissolved at 10 mM in DMSO (Sigma catalog no. D8418; purity >99.9%) and stored at −20° C. Eight concentrations of test compound were assessed in duplicate in an individual test occasion in parallel in the selected cell lines. MRTX-849 and AMG-510 were used as reference compounds and tested in duplicate at eight concentrations. 100% of proliferation is represented by the untreated cells (0.2% DMSO).
On the day of the experiment (TO), cells were detached with TrypLE (ThermoFisher catalog no. 12604054), quantified using the cell viability analyser NucleoCounter (Chemometec NC-200) and resuspended in fresh medium at a cell density of about 5000 cells per 200 μL medium. 200 μL of cell suspension were added to each well of a 96 well plate.
Two hours after seeding cells, compounds were added at desired concentrations using a D300e compound dispenser (Life Sciences Tecan D300) with shaking after each compound addition. Assay plates were incubated at 37° C. in a humidified incubator with 5% CO2.
(§1) To measure 3 day inhibition of cell proliferation on day 3 (T3), assay plates were equilibrated to room temperature for approximately 15 min, and the Promega CellTiterGlo® reagent was added at 40 μL/well. Contents were mixed for 5 min on an orbital shaker to induce cell lysis, and then incubated at room temperature for an additional 10 min in the dark to stabilize the luminescent signal. Luminescence was read using a GloMax GM300 plate reader (Promega) using the luminescence for 96 well plate standard protocol.
as §1, with “measure 7” for “measure 3”, “(T3), 150 μL of growth media was removed from each well of the assay plates and replaced with 150 uL fresh growth media, and fresh compounds added using a D300e compound dispenser (Life Sciences Tecan D300) at desired concentrations with shaking between each compound addition. Assay plates were incubated at 37° C. in a humidified incubator with 5% CO2. On day 7 (T7)” for “(T3),”
Data was expressed as % of inhibition compared to the 0.2% DMSO negative no drug control, and is calculated as follows: % inhibition=100−[(RLU sample)×100/(RLU average controls*)], where * indicates the average for 0.2% DMSO.
Results were analyzed by GraphPad (Prism) and IC50 values were calculated by non-linear regression using four parameter-logistic equation. […]

[1] = Homo sapiens, MIA PaCa-2, 72 h, 3 day inhibition of cell proliferation, CellTiter-Glo luminescence, read-out: MIA PaCa-2 Day 3 IC50

Compound	IC50 (7 day inhibition of cell proliferation, medium and compound renewed on day 3, CellTiter-Glo luminescence, read-out: MIA PaCa-2 Day 7 IC50) [nM]	IC50 [1] [nM]	IC50 (Homo sapiens, MIA PaCa-2, 7 day inhibition of cell proliferation, medium and compound renewed on day 3, CellTiter-Glo luminescence, read-out: MIA PaCa-2 Day 7 IC50) [nM]
CCn1c(-c2cccnc2[C@H](C)OC)c2c3cc(ccc31)-c1cccc(c1)C[C@H](NC(=O)[C@H](C(C)C)N(C)C(=O)[C@H]1CCN(C(=O)C#CCN3CCOCC3)C1)C(=O)N1CCC[C@H](C1)C(=O)OCC(C)(C)C2 (atropisomer, axis not shown) [Compound 2, (3S)—N-((2S)-1-(((6^3R,4S)-1^1-ethyl-1^2-(2-((S)-1-methoxyethyl)pyridin-3-yl)-10,10-dimethyl-5,7-dioxo-1^1H-8-oxa-1(5,3)-indola-6(1,3)-piperidina-2(1,3)-benzenacycloundecaphane-4-yl)amino)-3-methyl-1-oxobutan-2-yl)-N-methyl-1-(4-morpholinobut-2-ynoyl)pyrrolidine-3-carboxamide]	> 100	> 100	
CCn1c(-c2cccnc2[C@H](C)OC)c2c3cc(ccc31)-c1cccc(c1)C[C@H](NC(=O)[C@H](C(C)C)N(C)C(=O)[C@H]1CCN(C(=O)C#CCN(C)C)C1)C(=O)N1CC[C@@H](C1)C(=O)OCC(C)(C)C2 (atropisomer, axis not shown) [Compound 102, (3S)-1-(4-(dimethylamino)but-2-ynoyl)-N-((2S)-1-(((6^3S,4S)-1^1-ethyl-1^2-(2-((S)-1-methoxyethyl)pyridin-3-yl)-10,10-dimethyl-5,7-dioxo-1^1H-8-oxa-1(5,3)-indola-6(1,3)-pyrrolidina-2(1,3)-benzenacycloundecaphane-4-yl)amino)-3-methyl-1-oxobutan-2-yl)-N-methylpyrrolidine-3-carboxamide]		> 100	
CCn1c(-c2cccnc2[C@H](C)OC)c2c3cc(ccc31)-c1cccc(c1)C[C@H](NC(=O)[C@H](C(C)C)N(C)C(=O)[C@H]1CCN(C(=O)C#CCN(C)C)C1)C(=O)N1CC[C@H](C1)C(=O)OCC(C)(C)C2 (atropisomer, axis not shown) [Compound 103, (3S)-1-(4-(dimethylamino)but-2-ynoyl)-N-((2S)-1-(((6^3R,4S)-1^1-ethyl-1^2-(2-((S)-1-methoxyethyl)pyridin-3-yl)-10,10-dimethyl-5,7-dioxo-1^1H-8-oxa-1(5,3)-indola-6(1,3)-pyrrolidina-2(1,3)-benzenacycloundecaphane-4-yl)amino)-3-methyl-1-oxobutan-2-yl)-N-methylpyrrolidine-3-carboxamide]		> 100	
CCn1c(-c2cccnc2[C@H](C)OC)c2c3cc(ccc31)-c1cccc(c1)C[C@H](NC(=O)[C@H](C(C)C)N(C)C(=O)C1CCN(CC#CC(=O)N(C)C)CC1)C(=O)N1CCC[C@H](N1)C(=O)OCC(C)(C)C2 (atropisomer, axis not shown) [Compound 109, 1-(4-(dimethylamino)-4-oxobut-2-yn-1-yl)-N-((2S)-1-(((6^3S,4S)-1^1-ethyl-1^2-(2-((S)-1-methoxyethyl)pyridin-3-yl)-10,10-dimethyl-5,7-dioxo-6^1,6^2,6^3,6^4,6^5,6^6-hexahydro-1^1H-8-oxa-1(5,3)-indola-6(1,3)-pyridazina-2(1,3)-benzenacycloundecaphane-4-yl)amino)-3-methyl-1-oxobutan-2-yl)-N-methylpiperidine-4-carboxamide]		1 to 10	
CCn1c(-c2cccnc2[C@H](C)OC)c2c3cc(ccc31)-c1csc(n1)C[C@H](NC(=O)[C@H](C(C)C)N(C)C(=O)[C@H]1CCN(CC#CC(=O)N(C)C)C1)C(=O)N1CCC[C@H](N1)C(=O)OCC(C)(C)C2 (atropisomer, axis not shown) [Compound 113, (3S)-1-(4-(dimethylamino)-4-oxobut-2-yn-1-yl)-N-((2S)-1-(((6^3S,4S,Z)-1^1-ethyl-1^2-(2-((S)-1-methoxyethyl)pyridin-3-yl)-10,10-dimethyl-5,7-dioxo-6^1,6^2,6^3,6^4,6^5,6^6-hexahydro-1^1H-8-oxa-2(4,2)-thiazola-1(5,3)-indola-6(1,3)-pyridazinacycloundecaphane-4-yl)amino)-3-methyl-1-oxobutan-2-yl)-N-methylpyrrolidine-3-carboxamide]		< 1	

More lines, now with the values ahead:

IC50 (7 day inhibition of cell proliferation, medium and compound renewed on day 3, CellTiter-Glo luminescence, read-out: MIA PaCa-2 Day 7 IC50) [nM]	IC50 [1] [nM]	IC50 (Homo sapiens, MIA PaCa-2, 7 day inhibition of cell proliferation, medium and compound renewed on day 3, CellTiter-Glo luminescence, read-out: MIA PaCa-2 Day 7 IC50) [nM]	Compound
	10 to 100	10 to 100	CCn1c(-c2cccnc2[C@H](C)OC)c2c3cc(ccc31)-c1cccc(c1)C[C@H](NC(=O)[C@H](C(C)C)N(C)C(=O)[C@H]1CCN(C/C=C/C(=O)N(C)C)C1)C(=O)N1CCC[C@H](N1)C(=O)OCC(C)(C)C2 (atropisomer, axis not shown) [Compound 101, (3S)-1-((E)-4-(dimethylamino)-4-oxobut-2-en-1-yl)-N-((2S)-1-(((6^3S,4S)-1^1-ethyl-1^2-(2-((S)-1-methoxyethyl)pyridin-3-yl)-10,10-dimethyl-5,7-dioxo-6^1,6^2,6^3,6^4,6^5,6^6-hexahydro-1^1H-8-oxa-1(5,3)-indola-6(1,3)-pyridazina-2(1,3)-benzenacycloundecaphane-4-yl)amino)-3-methyl-1-oxobutan-2-yl)-N-methylpyrrolidine-3-carboxamide]
	< 1		CCn1c(-c2cccnc2[C@H](C)OC)c2c3cc(ccc31)-c1cccc(c1)C[C@H](NC(=O)[C@H](C(C)C)N(C)C(=O)[C@H]1CCN(C/C=C/C(=O)N3CC(F)C3)C1)C(=O)N1CCC[C@H](N1)C(=O)OCC(C)(C)C2 (atropisomer, axis not shown) [Compound 110, (3S)—N-((2S)-1-(((6^3S,4S)-1^1-ethyl-1^2-(2-((S)-1-methoxyethyl)pyridin-3-yl)-10,10-dimethyl-5,7-dioxo-6^1,6^2,6^3,6^4,6^5,6^6-hexahydro-1^1H-8-oxa-1(5,3)-indola-6(1,3)-pyridazina-2(1,3)-benzenacycloundecaphane-4-yl)amino)-3-methyl-1-oxobutan-2-yl)-1-((E)-4-(3-fluoroazetidin-1-yl)-4-oxobut-2-en-1-yl)-N-methylpyrrolidine-3-carboxamide]
	10 to 100		CCn1c(-c2cccnc2[C@H](C)OC)c2c3cc(ccc31)-c1csc(n1)C[C@H](NC(=O)[C@H](C(C)C)N(C)C(=O)[C@H]1CCN(C/C=C/C(=O)N(C)C)C1)C(=O)N1CCC[C@H](N1)C(=O)OCC(C)(C)C2 (atropisomer, axis not shown) [Compound 111, (3S)-1-((E)-4-(dimethylamino)-4-oxobut-2-en-1-yl)-N-((2S)-1-(((6^3S,4S,Z)-1^1-ethyl-1^2-(2-((S)-1-methoxyethyl)pyridin-3-yl)-10,10-dimethyl-5,7-dioxo-6^1,6^2,6^3,6^4,6^5,6^6-hexahydro-1^1H-8-oxa-2(4,2)-thiazola-1(5,3)-indola-6(1,3)-pyridazinacycloundecaphane-4-yl)amino)-3-methyl-1-oxobutan-2-yl)-N-methylpyrrolidine-3-carboxamide]
	< 1		CCn1c(-c2cccnc2[C@H](C)OC)c2c3cc(ccc31)-c1cccc(c1)C[C@H](NC(=O)[C@H](C(C)C)N(C)C(=O)[C@H]1CCN(C/C=C/C(=O)N3CC(F)(F)C3)C1)C(=O)N1CCC[C@H](N1)C(=O)OCC(C)(C)C2 (atropisomer, axis not shown) [Compound 115, (3S)-1-((E)-4-(3,3-difluoroazetidin-1-yl)-4-oxobut-2-en-1-yl)-N-((2S)-1-(((6^3S,4S)-1^1-ethyl-1^2-(2-((S)-1-methoxyethyl)pyridin-3-yl)-10,10-dimethyl-5,7-dioxo-6^1,6^2,6^3,6^4,6^5,6^6-hexahydro-1^1H-8-oxa-1(5,3)-indola-6(1,3)-pyridazina-2(1,3)-benzenacycloundecaphane-4-yl)amino)-3-methyl-1-oxobutan-2-yl)-N-methylpyrrolidine-3-carboxamide]
